Laboratory results from patent publication US6500610B1, “Methods for identifying compounds for inhibiting of neoplastic lesions, and pharmaceutical compositions containing such compounds” (Cell Pathways, INC, priority 1997, dated 2002).
Structures can show the parent of a compound that is named as a salt. Where two headings read alike, the source gives them in different places.

Tests used:
HT-29 (Colon) = experiment: Neutral red cytotoxicity assay, HT-29; type: cell-based, human; settings: free base, five days
Procedure: (§1) Compound I's activity is not confined to activity against colon cancer cell lines or animal models of colon cancer. It has a broad range of anti-neoplastic effects in various neoplastic cell lines. Various types of human cancer cell lines were propagated under sterile conditions in RPMI 1640 medium with 10% fetal bovine serum, 2 mM L-glutamine and sodium bicarbonate. To determine growth inhibitory effects of Compound I, cells were seeded in 96-well plates at a density of 1000 cells per well. Twenty-four hours after plating, the cells were dosed with various concentrations of the free base of Compound I solubilized in DMSO (final concentration 0.1%). The effect of the drug on tumor cell growth was determined using the neutral red cytotoxicity assay following five days of continuous treatment. Neutral red is a dye that is selectively taken up by viable cells by an ATP-dependent transport mechanism.

patients = experiment: Single, escalating dose human clinical safety study; type: in vivo; settings: oral
Colo 205 (Colon) = experiment: Neutral red cytotoxicity assay, Colo 205; type: cell-based, human; settings: free base, five days
Procedure: as §1

[1] = test system: LNCaP prostate tumor cell line; experiment: Histone-associated DNA fragmentation in LNCaP; type: cell-based; settings: 50 μM free base, up to 4 days
Procedure: (§2) The androgen-sensitive prostate tumor cell line, LNCaP (from ATCC (Rockville, Md.)) was propogated under standard conditions using […] medium containing 5% fetal calve serum and 2 mM glutamine. Primary prostate epithelial cell cultures (PrEC) derived from normal prostate (from Clonetics Inc. (San Diego, Calif.)) were grown under the same conditions as the tumor cell line except a serum-free medium optimized for the growth of such cultures was used (Clonetics Inc). For the experiments, LNCaP or PrEC cells were seeded in 96 well plates at a density of 10,000 cells per well. After 24 hours, the cells were treated with either vehicle (0.1% DMSO) or 50 μM Compound I (free base) solubilized in DMSO. After various drug treatment times (4, 24, 48, 72, or 99 hours) the cells were lysed and processed for measurement of histone-associated DNA as an indicator of apoptotic cell death (see, Piazza et al., Cancer Research 57: 2452-2459, 1997).

[2] = test system: azoxymethane-induced aberrant crypt foci in male Fisher 344 rats; experiment: Azoxymethane-induced aberrant crypt foci (ACF) model; type: in vivo; settings: in the rat chow
Procedure: The growth inhibition IC50 value obtained for Compound I was 0.7 μM in the SW-480 cell line. […] This established rodent model of azoxymethane (“AOM”)-induced carcinogenesis was used to assess the effects of Compound I (free base and salt) on colon cancer development in vivo. ACF are precursors to colonic tumors, and ACF inhibition is predictive of chemo-preventive efficacy.
In the rats in this experiment, ACF initiation was achieved by two consecutive weekly injections of the carcinogen. Compound I was administered one week prior to ACF initiation and for the duration of the experiment. ACFs were scored after 5 weeks of treatment. Compound I was administered orally to male Fisher 344 rats in the rat chow. Daily food consumption (mg/kg body weight) varied over the course of the study, and therefore Compound I dose was expressed a grams per kg of diet to provide a basis of comparison between doses. […] The experimental groups gained less weight than the controls, which was indicative of bioavailability. However, the weight differences were less than 10% and not considered to affect ACF formation.
The free base of Compound I inhibited ACF formation as measured by a reduction of crypts per colon. […]

rats [3] = settings: rat, in vivo
dogs = settings: dog, in vivo
NCI-H23 (Lung) = experiment: Neutral red cytotoxicity assay, NCI-H23; type: cell-based, human; settings: free base, five days
Procedure: as §1

[4] = Acute and seven-dose toxicity in dogs; settings: both, dog, in vivo, po, 1000 mg/kg
rats [5] = experiment: Seven-day dose-range finding study in rats; type: in vivo, rat; settings: seven days
HCT-15 (Colon) = experiment: Neutral red cytotoxicity assay, HCT-15; type: cell-based, human; settings: free base, five days
Procedure: as §1

MDA-MB-435 (Breast) = experiment: Neutral red cytotoxicity assay, MDA-MB-435; type: cell-based, human; settings: free base, five days
Procedure: as §1

UISO-BCA-1 (Breast) = experiment: Neutral red cytotoxicity assay, UISO-BCA-1; type: cell-based, human; settings: free base, five days
Procedure: as §1

rats [6] = experiment: 28-day study in rats; type: in vivo, rat
NCI-H460 (Lung) = experiment: Neutral red cytotoxicity assay, NCI-H460; type: cell-based, human; settings: free base, five days
Procedure: as §1

DU145 (Prostate) = experiment: Neutral red cytotoxicity assay, DU145; type: cell-based, human; settings: free base, five days
Procedure: as §1

NCI-H82 (Lung) = experiment: Neutral red cytotoxicity assay, NCI-H82; type: cell-based, human; settings: free base, five days
Procedure: as §1

[7] = test system: PrEC primary prostate epithelial cells from normal prostate; experiment: Histone-associated DNA fragmentation in PrEC; type: cell-based; settings: 50 μM, up to 4 days
Procedure: as §2

[8] = Acute toxicity study in rats; settings: rat, in vivo
SW-620 (Colon) = experiment: Neutral red cytotoxicity assay, SW-620; type: cell-based, human; settings: free base, five days
Procedure: as §1

Question: Which GI90 (HT-29 (Colon)) does the source give for `CC1=C(CC(=O)NCc2ccccc2)c2cc(F)ccc2/C1=C\c1ccncc1` [Compound I, (Z)-5-fluoro-2-methyl-(4-pyridylidene)-3-(N-benzyl)indenylacetamide hydrochloride] here?
Answer: 8.0 µM

Question: And the side effects (patients)?
Answer: no significant side effects at any dose

Question: What about the GI90 (Colo 205 (Colon)) of the same molecule?
Answer: 2.4 µM

Question: What about the “histone-associated fragmented DNA” value [1] of the same molecule?
Answer: time-dependent increase

Question: What about the “body weight difference to controls” value [2] of the same molecule?
Answer: less than 10%

Question: What about the body weight gain (rats [3]; ip, 1000 mg/kg) of the same molecule?
Answer: reduced body weight gain

Question: What about the body weight gain (rats [3]; po, 4000 mg/kg) of the same molecule?
Answer: body weight gains were slightly reduced

Question: And the signs of toxicity (dogs; 1000 mg/kg)?
Answer: no signs of toxicity

Question: And the drug-related effects (dogs; 1000 mg/kg/day)?
Answer: At no time in either dosing phase were any obvious signs of drug-related effects observed

Question: And the GI90 (NCI-H23 (Lung))?
Answer: 2.5 µM

Question: And the LD50 [4]?
Answer: > 1000 mg/kg

Question: What about the signs of toxicity (rats [5]; 50 mg/kg/day) of the same molecule?
Answer: no observable signs of toxicity

Question: And the treatment-related effects (rats [5]; 500 mg/kg/day)?
Answer: increase in absolute and relative liver weights in female rats

Question: What about the treatment-related effects (rats [5]; 2000 mg/kg/day) of the same molecule?
Answer: labored breathing and/or abnormal respiratory sounds, decreased weights gains and food consumption in male rats, and increased liver weights in female rats

Question: What about the GI90 (HCT-15 (Colon)) of the same molecule?
Answer: 3.0 µM

Question: And the GI90 (MDA-MB-435 (Breast))?
Answer: 2.3 µM

Question: What about the GI90 (UISO-BCA-1 (Breast)) of the same molecule?
Answer: 4.7 µM

Question: What about the organ weights (rats [6]; 28 days, 2000 mg/kg/day) of the same molecule?
Answer: statistically significant increase in liver weights

Question: And the clinical observations (rats [6]; 28 days, 50, 500 and 2000 mg/kg/day)?
Answer: no abnormal clinical observations

Question: And the GI90 (NCI-H460 (Lung))?
Answer: 30.0 µM

Question: And the GI90 (DU145 (Prostate))?
Answer: 2.8 µM

Question: What about the GI90 (NCI-H82 (Lung)) of the same molecule?
Answer: 5.8 µM

Question: What about the DNA fragmentation [7] of the same molecule?
Answer: did not affect DNA fragmentation

Question: And the LD50 ([8]; ip, 1000 mg/kg)?
Answer: > 1000 mg/kg

Question: What about the LD50 ([8]; po) of the same molecule?
Answer: > 4000 mg/kg

Question: What about the GI90 (SW-620 (Colon)) of the same molecule?
Answer: 2.5 µM
